These results are taken from patent US20100035871A1, “BENZOXAZINE DERIVATIVES AND USES THEREOF” (priority 2006, published 2010).

SMILES strings stand for the structures. Counter-ions that a name gives are not always drawn.

On to `CCN1CC(CN)Oc2c(-c3ccccc3Cl)cccc21` (racemic) (as salt: hydrochloride) [Example 19, 1-[8-(2-Chlorophenyl)-4-ethyl-3,4-dihydro-2H-1,4-benzoxazin-2-yl]methanamine], for which the melting point was in the range of 105 to 106 °C.

In the case of `Cc1cc(Cl)ccc1-c1cccc2c1OC(CN)CN2` (racemic) (as salt: hydrochloride) [Example 20, 1-[8-(4-chloro-2-methylphenyl)-3,4-dihydro-2H-1,4-benzoxazin-2-yl]methanamine], the melting point lay in the range of 192 to 194 °C.

In turn, `CCCN1CC(CN)Oc2c(-c3ccccc3Cl)cccc21` (racemic) (as salt: hydrochloride) [Example 21, 1-[8-(2-Chlorophenyl)-4-propyl-3,4-dihydro-2H-1,4-benzoxazin-2-yl]methanamine] registered a melting point of 83 to 85 °C.

On to `NCC1CNc2cccc(-c3ccccc3C(F)(F)F)c2O1` (racemic) (as salt: hydrochloride) [Example 22, 1-{8-[2-(Trifluoromethyl)phenyl]-3,4-dihydro-2H-1,4-benzoxazin-2-yl}methanamine], for which the melting point was in the range of 185 to 187 °C.

With `NCC1CNc2cccc(-c3ccc(C(F)(F)F)cc3C(F)(F)F)c2O1` (racemic) (as salt: hydrochloride) [Example 23, 1-{8-[2,4-Bis(trifluoromethyl)phenyl]-3,4-dihydro-2H-1,4-benzoxazin-2-yl}methanamine], the melting point is 192 to 194 °C.

`COc1ccc(-c2cccc3c2OC(CN)CN3)c(C)c1` (racemic) (as salt: hydrochloride) [Example 24, 1-[8-(4-Methoxy-2-methylphenyl)-3,4-dihydro-2H-1,4-benzoxazin-2-yl]methanamine]: the melting point lay in the range of 230 to 232 °C.

As for `NCC1COc2cc(Cl)cc(-c3ccccc3C(F)(F)F)c2N1` (racemic) (as salt: hydrochloride) [Example 25, 1-{7-Chloro-5-[2-(trifluoromethyl)phenyl]-3,4-dihydro-2H-1,4-benzoxazin-3-yl}methanamine], the melting point is 102 °C (dec.).

`COc1ccc(-c2cc(Cl)cc3c2NC(CN)CO3)cc1` (racemic) (as salt: hydrochloride) [Example 26, 1-[7-Chloro-5-(4-methoxyphenyl)-3,4-dihydro-2H-1,4-benzoxazin-3-yl]methanamine]: the melting point is 101 °C (dec.).

In the case of `COc1ccc(-c2cc(Cl)cc3c2NC(CN)CO3)c(C)c1` (racemic) (as salt: hydrochloride) [Example 27, 1-[7-chloro-5-(4-methoxy-2-methylphenyl)-3,4-dihydro-2H-1,4-benzoxazin-3-yl]methanamine], the melting point is 98 °C (dec.).

For `COc1ccc(-c2cc(Cl)cc3c2N(C)C(CN)CO3)c(C)c1` (racemic) (as salt: hydrochloride) [Example 28, 1-[7-chloro-5-(4-methoxy-2-methylphenyl)-4-methyl-3,4-dihydro-2H-1,4-benzoxazin-3-yl]methanamine], the melting point was 106 °C (dec.).

With `NCC1COc2cc(Cl)cc(-c3ccccc3)c2N1` (racemic) (as salt: hydrochloride) [Example 29, 1-(7-chloro-5-phenyl-3,4-dihydro-2H-1,4-benzoxazin-3-yl)methanamine], the melting point is 92 °C (dec.).

Turning to `Cc1ccccc1-c1cc(Cl)cc2c1NC(CN)CO2` (racemic) (as salt: hydrochloride) [Example 30, 1-[7-chloro-5-(2-methylphenyl)-3,4-dihydro-2H-1,4-benzoxazin-3-yl]methanamine], the melting point is 86 °C (dec.).

`Cc1ccc(-c2cc(Cl)cc3c2NC(CN)CO3)c(C(F)(F)F)c1` (racemic) (as salt: hydrochloride) [Example 31, 1-{7-chloro-5-[4-methyl-2-(trifluoromethyl)phenyl]-3,4-dihydro-2H-1,4-benzoxazin-3-yl}methanamine]: the melting point was 98 °C (dec.).

On to `COc1ccc(-c2cc(Cl)cc3c2NC(CN)CO3)c(Cl)c1` (racemic) (as salt: hydrochloride) [Example 32, 1-[7-chloro-5-(2-chloro-4-methoxyphenyl)-3,4-dihydro-2H-1,4-benzoxazin-3-yl]methanamine], for which the melting point was 105 °C (dec.).

In the case of `NCC1COc2cc(Cl)cc(-c3ccccc3F)c2N1` (racemic) (as salt: hydrochloride) [Example 33, 1-[7-chloro-5-(2-fluorophenyl)-3,4-dihydro-2H-1,4-benzoxazin-3-yl]methanamine], the melting point was 95 °C (dec.).

As to `COc1ccccc1-c1cc(Cl)cc2c1NC(CN)CO2` (racemic) (as salt: hydrochloride) [Example 34, 1-[7-chloro-5-(2-methoxyphenyl)-3,4-dihydro-2H-1,4-benzoxazin-3-yl]methanamine], the melting point is 100 °C (dec.).

On to `Cc1cc(Cl)ccc1-c1cc(Cl)cc2c1NC(CN)CO2` (racemic) (as salt: hydrochloride) [Example 35, 1-[7-chloro-5-(4-chloro-2-methylphenyl)-3,4-dihydro-2H-1,4-benzoxazin-3-yl]methanamine], for which the melting point is 102 °C (dec.).

Consider `NCC1COc2cc(Cl)cc(-c3ccccc3Cl)c2N1` (racemic) (as salt: hydrochloride) [Example 36, 1-[7-chloro-5-(2-chlorophenyl)-3,4-dihydro-2H-1,4-benzoxazin-3-yl]methanamine], for which the melting point was 108 °C (dec.).

Regarding `NCC1COc2cc(Cl)cc(-c3ccc(Cl)cc3C(F)(F)F)c2N1` (racemic) (as salt: hydrochloride) [Example 37, 1-{7-chloro-5-[4-chloro-2-(trifluoromethyl)phenyl]-3,4-dihydro-2H-1,4-benzoxazin-3-yl}methanamine], the melting point was 95 °C (dec.).

`NCC1COc2cc(Cl)cc(-c3ccc(C(F)(F)F)cc3C(F)(F)F)c2N1` (racemic) (as salt: hydrochloride) [Example 38, 1-{5-[2,4-bis(trifluoromethyl)phenyl]-7-chloro-3,4-dihydro-2H-1,4-benzoxazin-3-yl}methanamine]: the melting point was 98 °C (dec.).

Consider `NCC1COc2cc(F)cc(-c3ccccc3C(F)(F)F)c2N1` (racemic) (as salt: hydrochloride) [Example 55, 1-{7-fluoro-5-[2-(trifluoromethyl)phenyl]-3,4-dihydro-2H-1,4-benzoxazin-3-yl}methanamine], for which the melting point is 99 °C (dec.).

Regarding `COc1ccc(-c2cc(F)cc3c2NC(CN)CO3)c(C)c1` (racemic) (as salt: hydrochloride) [Example 56, 1-[7-fluoro-5-(4-methoxy-2-methylphenyl)-3,4-dihydro-2H-1,4-benzoxazin-3-yl]methanamine], the melting point was 82 °C (dec.).

For the molecule `NCC1COc2cc(F)cc(-c3ccccc3Cl)c2N1` (racemic) (as salt: hydrochloride) [Example 57, 1-[5-(2-chlorophenyl)-7-fluoro-3,4-dihydro-2H-1,4-benzoxazin-3-yl]methanamine], the melting point was 86 °C (dec.).

For `Cc1ccccc1-c1cc(F)cc2c1NC(CN)CO2` (racemic) (as salt: hydrochloride) [Example 58, 1-[7-fluoro-5-(2-methylphenyl)-3,4-dihydro-2H-1,4-benzoxazin-3-yl]methanamine], the melting point was 78 °C (dec.).

Consider `COc1ccc(-c2cc(F)cc3c2NC(CN)CO3)c(Cl)c1` (racemic) (as salt: hydrochloride) [Example 59, 1-[5-(2-chloro-4-methoxyphenyl)-7-fluoro-3,4-dihydro-2H-1,4-benzoxazin-3-yl]methanamine], for which the melting point is 84 °C (dec.).

Consider `Cc1ccc(-c2cc(F)cc3c2NC(CN)CO3)c(C(F)(F)F)c1` (racemic) (as salt: hydrochloride) [Example 60, 1-{7-fluoro-5-[4-methyl-2-(trifluoromethyl)phenyl]-3,4-dihydro-2H-1,4-benzoxazin-3-yl}methanamine], for which the melting point was 86 °C (dec.).

As to `COc1ccc(-c2cc(F)cc3c2NC(CN)CO3)cc1` (racemic) (as salt: hydrochloride) [Example 61, 1-[7-fluoro-5-(4-methoxyphenyl)-3,4-dihydro-2H-1,4-benzoxazin-3-yl]methanamine], the melting point was 72 °C (dec.).

Regarding `NCC1COc2cc(F)cc(-c3ccccc3F)c2N1` (racemic) (as salt: hydrochloride) [Example 62, 1-[7-fluoro-5-(2-fluorophenyl)-3,4-dihydro-2H-1,4-benzoxazin-3-yl]methanamine], the melting point was 77 °C (dec.).

Regarding `Cc1cc(Cl)ccc1-c1cc(F)cc2c1NC(CN)CO2` (racemic) (as salt: hydrochloride) [Example 63, 1-[5-(4-chloro-2-methylphenyl)-7-fluoro-3,4-dihydro-2H-1,4-benzoxazin-3-yl]methanamine], the melting point was 90 °C (dec.).

For `COc1ccccc1-c1cc(F)cc2c1NC(CN)CO2` (racemic) (as salt: hydrochloride) [Example 64, 1-[7-fluoro-5-(2-methoxyphenyl)-3,4-dihydro-2H-1,4-benzoxazin-3-yl]methanamine], the melting point was 84 °C (dec.).

For `NCC1COc2cc(F)cc(-c3cccc(Cl)c3)c2N1` (racemic) (as salt: hydrochloride) [Example 65, 1-[5-(3-chlorophenyl)-7-fluoro-3,4-dihydro-2H-1,4-benzoxazin-3-yl]methanamine], the melting point was 76 °C (dec.).

Turning to `CN1CC(CN)Oc2c(-c3cccc(Cl)c3)cccc21` (racemic) (as salt: hydrochloride) [Example 66, 1-[8-(3-chlorophenyl)-4-methyl-3,4-dihydro-2H-1,4-benzoxazin-2-yl]methanamine], the melting point is 134 °C (dec.).

For orientation: melting point means the temperature of the solid-liquid transition.
